Structures can show the parent of a compound that is named as a salt.
How the values were obtained:
[1] = tested on: BT474 [human breast carcinoma, overexpressing HER2 (ErbB2)]; test: In vitro tumor cell proliferation assay (Cell Titer-Glo luminescent cell viability), BT474 cells; format: cell-based; conditions: BT-474, 72 h, 72 hours of drug exposure, Cell Titer-Glo readout, read-out: IC50, anti-proliferative activity in BT474 cells
[2] = tested on: A431 cells [human epidermoid carcinoma, overexpressing HER1 (EGFR, ErbB1)]; test: In vitro tumor cell proliferation assay (Cell Titer-Glo luminescent cell viability), A431 cells; format: cell-based; conditions: A-431, 72 h, 72 hours of drug exposure, Cell Titer-Glo readout, read-out: IC50, anti-proliferative activity in A431 cells

Structure (SMILES)	IC50 [1]	IC50 [2]
CS(=O)(=O)CCNC(=O)CCc1ccc2c(c1)sc1ncnc(Nc3ccc(OCc4cccc(F)c4)c(Cl)c3)c12 [Example 69, 3-[4-({3-chloro-4-[(3-fluorobenzyl)oxy]phenyl}amino)[1]benzothieno[2,3-d]pyrimidin-7-yl]-N-[2-(methylsulfonyl)ethyl] propanamide]	≤ 0.5 µM	≤ 5 µM
CN(C)CCNC(=O)CCc1ccc2c(c1)sc1ncnc(Nc3ccc(OCc4cccc(F)c4)c(Cl)c3)c12 [Example 70, 3-[4-({3-chloro-4-[(3-fluorobenzyl)oxy]phenyl}amino)[1]benzothieno[2,3-d]pyrimidin-7-yl]-N-[2-(dimethylamino)ethyl] propanamide]	≤ 5 µM	≤ 5 µM
Clc1cc(Nc2ncnc3sc4cc(Br)ccc4c23)ccc1OCc1ccccn1 [Example 71, 7-bromo-N-[3-chloro-4-(pyridin-2-ylmethoxy)phenyl][1]benzothieno[2,3-d]pyrimidin-4-amine]	≤ 5 µM	≤ 50 µM
C=Cc1ccc2c(c1)sc1ncnc(Nc3ccc(OCc4ccccn4)c(Cl)c3)c12 [Example 72, N-[3-chloro-4-(pyridin-2-ylmethoxy)phenyl]-7-vinyl[1]benzothieno[2,3-d]pyrimidin-4-amine]	≤ 5 µM	≤ 50 µM
OC[C@@H](O)c1ccc2c(c1)sc1ncnc(Nc3ccc(OCc4ccccn4)c(Cl)c3)c12 [Example 74, (1S)-1-(4-{[3-chloro-4-(pyridin-2-ylmethoxy)phenyl]amino}[1]benzothieno[2,3-d]pyrimidin-7-yl)ethane-1,2-diol]	≤ 0.5 µM	≤ 50 µM
OC[C@H](O)c1ccc2c(c1)sc1ncnc(Nc3ccc(OCc4ccccn4)c(Cl)c3)c12 [Example 75, (1R)-1-(4-{[3-chloro-4-(pyridin-2-ylmethoxy)phenyl]amino}[1]benzothieno[2,3-d]pyrimidin-7-yl)ethane-1,2-diol]	≤ 0.5 µM	≤ 50 µM
Clc1cc(Nc2ncnc3sc4cc(N5CCOCC5)ccc4c23)ccc1OCc1ccccn1 [Example 76, N-[3-chloro-4-(pyridin-2-ylmethoxy)phenyl]-7-morpholin-4-yl[1]benzothieno[2,3-d]pyrimidin-4-amine trifluoroacetate]	≤ 0.5 µM	≤ 50 µM
CN1CCN(c2ccc3c(c2)sc2ncnc(Nc4ccc(OCc5ccccn5)c(Cl)c4)c23)CC1 [Example 77, N-[3-chloro-4-(pyridin-2-ylmethoxy)phenyl]-7-(4-methylpiperazin-1-yl)[1]benzothieno [2,3-d]pyrimidin-4-amine trifluoroacetate]	≤ 0.5 µM	≤ 5 µM
Clc1cc(Nc2ncnc3sc4cc(NCCN5CCOCC5)ccc4c23)ccc1OCc1ccccn1 [Example 78, N4-[3-chloro-4-(pyridin-2-ylmethoxy)phenyl]-N7-(2-morpholin-4-ylethyl)[1] benzothieno[2,3-d]pyrimidine-4,7-diamine trifluoroacetate]	≤ 5 µM	≤ 50 µM
COCCCNc1ccc2c(c1)sc1ncnc(Nc3ccc(OCc4ccccn4)c(Cl)c3)c12 [Example 79, N4-[3-chloro-4-(pyridin-2-ylmethoxy)phenyl]-N7-(3-methoxypropyl)[1]benzothieno [2,3-d]pyrimidine-4,7-diamine trifluoroacetate]	≤ 5 µM	≤ 50 µM
CCOC(=O)Cc1ccc2c(c1)sc1ncnc(Nc3ccc(OCc4ccccn4)c(Cl)c3)c12 [Example 81, ethyl {4-[3-Chloro-4-(pyridin-2-ylmethoxy)-phenylamino]-benzo [4,5]thieno[2,3-d]pyrimidin-7-yl}-acetate trifluoroacetate]	≤ 5 µM	≤ 50 µM
OCCc1ccc2c(c1)sc1ncnc(Nc3ccc(OCc4ccccn4)c(Cl)c3)c12 [Example 82, 2-(4-{[3-chloro-4-(pyridin-2-ylmethoxy)phenyl]amino}[1]benzothieno[2,3-d]pyrimidin-7-yl) ethanol]	≤ 0.5 µM	≤ 5 µM
Clc1cc(Nc2ncnc3sc4cc(CCBr)ccc4c23)ccc1OCc1ccccn1 [Example 83, 7-(2-bromoethyl)-N-[3-chloro-4-(pyridin-2-ylmethoxy)phenyl][1] benzothieno[2,3-d]pyrimidin-4-amine]	≤ 0.5 µM	≤ 5 µM
Clc1cc(Nc2ncnc3sc4cc(CCN5CCOCC5)ccc4c23)ccc1OCc1ccccn1 [Example 84, N-[3-chloro-4-(pyridin-2-ylmethoxy)phenyl]-7-(2-morpholin-4-ylethyl)[1]benzothieno[2,3-d] pyrimidin-4-amine]	≤ 0.5 µM	≤ 50 µM
CS(=O)(=O)CCNCCc1ccc2c(c1)sc1ncnc(Nc3ccc(OCc4ccccn4)c(Cl)c3)c12 [Example 85, N-[3-chloro-4-(pyridin-2-ylmethoxy)phenyl]-7-(2-{[2-(methylsulfonyl)ethyl]amino}ethyl) [1]benzothieno[2,3-d]pyrimidin-4-amine trifluoroacetate]	≤ 0.5 µM	≤ 5 µM
COCCNCCc1ccc2c(c1)sc1ncnc(Nc3ccc(OCc4ccccn4)c(Cl)c3)c12 [Example 86, N-[3-chloro-4-(pyridin-2-ylmethoxy)phenyl]-7-{2-[(2-methoxyethyl)amino]ethyl}[1] benzothieno[2,3-d]pyrimidin-4-amine trifluoroacetate]	≤ 0.5 µM	≤ 5 µM
Clc1cc(Nc2ncnc3sc4cc(CCN5CCCC5)ccc4c23)ccc1OCc1ccccn1 [Example 87, N-[3-chloro-4-(pyridin-2-ylmethoxy)phenyl]-7-(2-pyrrolidin-1-ylethyl)[1]benzothieno[2,3-d] pyrimidin-4-amine trifluoroacetate]	≤ 5 µM	≤ 50 µM
OCCNCCc1ccc2c(c1)sc1ncnc(Nc3ccc(OCc4ccccn4)c(Cl)c3)c12 [Example 88, 2-{[2-(4-{[3-chloro-4-(pyridin-2-ylmethoxy)phenyl]amino}[1]benzothieno[2,3-d]pyrimidin-7-yl)ethyl]amino}ethanol trifluoroacetate (salt)]	≤ 0.5 µM	≤ 50 µM
Clc1cc(Nc2ncnc3sc4cc(CCN5CCNCC5)ccc4c23)ccc1OCc1ccccn1 [Example 89, N-[3-chloro-4-(pyridin-2-ylmethoxy)phenyl]-7-(2-piperazin-1-ylethyl)[1]benzothieno[2,3-d] pyrimidin-4-amine trifluoroacetate]	≤ 0.5 µM	≤ 50 µM
CCNCCc1ccc2c(c1)sc1ncnc(Nc3ccc(OCc4ccccn4)c(Cl)c3)c12 [Example 90, N-[3-chloro-4-(pyridin-2-ylmethoxy)phenyl]-7-[2-(ethylamino)ethyl][1]benzothieno [2,3-d]pyrimidin-4-amine trifluoroacetate]	≤ 0.5 µM	≤ 5 µM
COCCN(CCOC)CCc1ccc2c(c1)sc1ncnc(Nc3ccc(OCc4ccccn4)c(Cl)c3)c12 [Example 93, 7-{2-[bis(2-methoxyethyl)amino]ethyl}-N-[3-chloro-4-(pyridin-2-ylmethoxy)phenyl][1]benzothieno [2,3-d]pyrimidin-4-amine trifluoroacetate]	≤ 0.5 µM	≤ 50 µM
O=C(O)Cc1ccc2c(c1)sc1ncnc(Nc3ccc(OCc4ccccn4)c(Cl)c3)c12 [Example 94, (4-{[3-chloro-4-(pyridin-2-ylmethoxy)phenyl]amino}[1]benzothieno[2,3-d]pyrimidin-7-yl)acetic acid]	≤ 5 µM	≤ 50 µM
O=C(Cc1ccc2c(c1)sc1ncnc(Nc3ccc(OCc4ccccn4)c(Cl)c3)c12)N1CCOCC1 [Example 95, N-[3-chloro-4-(pyridin-2-ylmethoxy)phenyl]-7-(2-morpholin-4-yl-2-oxoethyl)[1]benzothieno[2,3-d]pyrimidin-4-amine]	≤ 5 µM	≤ 50 µM
CN1CCN(C(=O)Cc2ccc3c(c2)sc2ncnc(Nc4ccc(OCc5ccccn5)c(Cl)c4)c23)CC1 [Example 96, N-[3-chloro-4-(pyridin-2-ylmethoxy)phenyl]-7-[2-(4-methylpiperazin-1-yl)-2-oxoethyl][1]benzothieno[2,3-d] pyrimidin-4-amine]	≤ 0.5 µM	≤ 50 µM
O=C(Cc1ccc2c(c1)sc1ncnc(Nc3ccc(OCc4ccccn4)c(Cl)c3)c12)NCCN1CCOCC1 [Example 97, 2-(4-{[3-chloro-4-(pyridin-2-ylmethoxy)phenyl]amino}[1]benzothieno[2,3-d]pyrimidin-7-yl)-N-(2-morpholin-4-ylethyl) acetamide]	≤ 0.5 µM	≤ 50 µM
O=C(Cc1ccc2c(c1)sc1ncnc(Nc3ccc(OCc4ccccn4)c(Cl)c3)c12)NCCOCCO [Example 98, 2-(4-{[3-chloro-4-(pyridin-2-ylmethoxy)phenyl]amino}[1]benzothieno[2,3-d]pyrimidin-7-yl)-N-[2-(2-hydroxyethoxy)ethyl] acetamide]	≤ 5 µM	≤ 50 µM
O=C(Cc1ccc2c(c1)sc1ncnc(Nc3ccc(OCc4ccccn4)c(Cl)c3)c12)N1CCCC1 [Example 99, N-[3-chloro-4-(pyridin-2-ylmethoxy)phenyl]-7-(2-oxo-2-pyrrolidin-1-ylethyl)[1]benzothieno [2,3-d]pyrimidin-4-amine]	≤ 5 µM	≤ 50 µM
CN(C)CCNC(=O)Cc1ccc2c(c1)sc1ncnc(Nc3ccc(OCc4ccccn4)c(Cl)c3)c12 [Example 100, 2-(4-{[3-chloro-4-(pyridin-2-ylmethoxy)phenyl]amino}[1]benzothieno[2,3-d]pyrimidin-7-yl)-N-[(2-dimethylamino)ethyl]acetamide]	≤ 0.5 µM	≤ 50 µM
COCCN(CCOC)C(=O)Cc1ccc2c(c1)sc1ncnc(Nc3ccc(OCc4ccccn4)c(Cl)c3)c12 [Example 101, 2-(4-{[3-chloro-4-(pyridin-2-ylmethoxy)phenyl]amino}[1]benzothieno[2,3-d]pyrimidin-7-yl)-N,N-bis (2-methoxyethyl)acetamide]	≤ 5 µM	≤ 5 µM

Reference: US7750017B2, “Heterocycles” (Bayer Schering Pharma Aktiengesellschaft, priority 2004, dated 2010)
